In the experiment the test system is HCV 1b-Con1 replicon. Nature of the experiment: HCV 1b-Con1 replicon assay in the presence of 5% FBS. The conditions noted are these: Hepatitis C virus. Type of experiment: cell-based. On the technique in general: Replicon systems follow genome replication, usually without infectious particles.

As a reminder, the EC50 is the midpoint of the concentration-response curve. With `COC(=O)N[C@H](C(=O)N1CCC[C@H]1c1nc2cc([C@H]3CC[C@H](c4ccc5[nH]c([C@@H]6CCCN6C(=O)[C@@H](NC(=O)OC)C(C)C)nc5c4)N3c3ccc(Oc4ccccc4)cc3)ccc2[nH]1)C(C)C` [Example 1.1, methyl {(2S)-1-[(2S)-2-{5-[(2R,5R)-5-{2-[(2S)-1-{(2S)-2-[(methoxycarbonyl)amino]-3-methylbutanoyl}pyrrolidin-2-yl]-1H-benzimidazol-5-yl}-1-(4-phenoxyphenyl)pyrrolidin-2-yl]-1H-benzimidazol-2-yl}pyrrolidin-1-yl]-3-methyl-1-oxobutan-2-yl}carbamate], the EC50 is under 0.1 nM.

On to `COC(=O)N[C@H](C(=O)N1CCC[C@H]1c1nc2cc([C@H]3CC[C@H](c4ccc5[nH]c([C@@H]6CCCN6C(=O)[C@@H](NC(=O)OC)C(C)C)nc5c4)N3c3ccc(N4CCCCC4=O)cc3)ccc2[nH]1)C(C)C` [Example 1.2, methyl {(2S)-1-[(2S)-2-(5-{(2R,5R)-5-{2-[(2S)-1-{(2S)-2-[(methoxycarbonyl)amino]-3-methylbutanoyl}pyrrolidin-2-yl]-1H-benzimidazol-5-yl}-1-[4-(2-oxopiperidin-1-yl)phenyl]pyrrolidin-2-yl}-1H-benzimidazol-2-yl)pyrrolidin-1-yl]-3-methyl-1-oxobutan-2-yl}carbamate], for which the EC50 is over 10 nM.

Take `COC(=O)N[C@H](C(=O)N1CCC[C@H]1c1nc2cc([C@H]3CC[C@@H](c4ccc5[nH]c([C@@H]6CCCN6C(=O)[C@@H](NC(=O)OC)C(C)C)nc5c4)N3c3cc(F)c(C(F)(F)F)cc3F)ccc2[nH]1)C(C)C` [Example 1.3, methyl {(2S)-1-[(2S)-2-{5-[(2S,5R)-1-[2,5-difluoro-4-(trifluoromethyl)phenyl]-5-{2-[(2S)-1-{(2S)-2-[(methoxycarbonyl)amino]-3-methylbutanoyl}pyrrolidin-2-yl]-1H-benzimidazol-5-yl}pyrrolidin-2-yl]-1H-benzimidazol-2-yl}pyrrolidin-1-yl]-3-methyl-1-oxobutan-2-yl}carbamate]: the concentration giving a half-maximal response (EC50) was under 0.1 nM. Next, `COC(=O)N[C@H](C(=O)N1CCC[C@H]1c1nc2cc([C@H]3CC[C@H](c4ccc5[nH]c([C@@H]6CCCN6C(=O)[C@@H](NC(=O)OC)C(C)C)nc5c4)N3c3ccnc(F)c3)ccc2[nH]1)C(C)C` [Example 1.4, methyl {(2S)-1-[(2S)-2-{5-[(2R,5R)-1-(2-fluoropyridin-4-yl)-5-{2-[(2S)-1-{(2S)-2-[(methoxycarbonyl)amino]-3-methylbutanoyl}pyrrolidin-2-yl]-1H-benzimidazol-5-yl}pyrrolidin-2-yl]-1H-benzimidazol-2-yl}pyrrolidin-1-yl]-3-methyl-1-oxobutan-2-yl}carbamate]: 0.1 to 1 nM. For `COC(=O)N[C@H](C(=O)N1CCC[C@H]1c1nc2cc([C@H]3CC[C@H](c4ccc5[nH]c([C@@H]6CCCN6C(=O)[C@@H](NC(=O)OC)C(C)C)nc5c4)N3c3cc(F)c(N4CCC(F)(F)CC4)c(F)c3)ccc2[nH]1)C(C)C` [Example 1.5, methyl {(2S)-1-[(2S)-2-{5-[(2R,5R)-1-[4-(4,4-difluoropiperidin-1-yl)-3,5-difluorophenyl]-5-{2-[(2S)-1-{(2S)-2-[(methoxycarbonyl)amino]-3-methylbutanoyl}pyrrolidin-2-yl]-1H-benzimidazol-5-yl}pyrrolidin-2-yl]-1H-benzimidazol-2-yl}pyrrolidin-1-yl]-3-methyl-1-oxobutan-2-yl}carbamate] the value was under 0.1 nM. Next, `COC(=O)NC(C(=O)N1CCC[C@H]1c1nc2cc([C@H]3CC[C@H](c4ccc5[nH]c([C@@H]6CCCN6C(=O)C(NC(=O)OC)C(C)C)nc5c4)N3c3cc(F)c(N4CCC(F)CC4)c(F)c3)ccc2[nH]1)C(C)C` (stereo partly drawn) [Example 1.6, methyl {1-[(2S)-2-{5-[(2R,5R)-1-[3,5-difluoro-4-(4-fluoropiperidin-1-yl)phenyl]-5-{2-[(2S)-1-{2-[(methoxycarbonyl)amino]-3-methylbutanoyl}pyrrolidin-2-yl]-1H-benzimidazol-5-yl}pyrrolidin-2-yl]-1H-benzimidazol-2-yl}pyrrolidin-1-yl]-3-methyl-1-oxobutan-2-yl}carbamate]: under 0.1 nM; `CCC1(COc2ccc(N3[C@@H](c4ccc5[nH]c([C@@H]6CCCN6C(=O)[C@@H](NC(=O)OC)C(C)C)nc5c4)CC[C@@H]3c3ccc4[nH]c([C@@H]5CCCN5C(=O)[C@@H](NC(=O)OC)C(C)C)nc4c3)cc2)COC1` [Example 1.7, methyl {(2S)-1-[(2S)-2-{5-[(2R,5R)-1-{4-[(3-ethyloxetan-3-yl)methoxy]phenyl}-5-{2-[(2S)-1-{(2S)-2-[(methoxycarbonyl)amino]-3-methylbutanoyl}pyrrolidin-2-yl]-1H-benzimidazol-5-yl}pyrrolidin-2-yl]-1H-benzimidazol-2-yl}pyrrolidin-1-yl]-3-methyl-1-oxobutan-2-yl}carbamate]: under 0.1 nM. `COC(=O)N[C@H](C(=O)N1CCC[C@H]1c1nc2cc([C@H]3CC[C@H](c4ccc5[nH]c([C@@H]6CCCN6C(=O)[C@@H](NC(=O)OC)C(C)C)nc5c4)N3c3cc(F)c(N4C[C@H]5CC[C@H]5C4)c(F)c3)ccc2[nH]1)C(C)C` [Example 1.8, methyl {(2S)-1-[(2S)-2-{5-[(2R,5R)-1-{4-[(1R,5S)-3-azabicyclo[3.2.0]hept-3-yl]-3,5-difluorophenyl}-5-{2-[(2S)-1-{(2S)-2-[(methoxycarbonyl)amino]-3-methylbutanoyl}pyrrolidin-2-yl]-1H-benzimidazol-5-yl}pyrrolidin-2-yl]-1H-benzimidazol-2-yl}pyrrolidin-1-yl]-3-methyl-1-oxobutan-2-yl}carbamate]: the EC50 was under 0.1 nM. For `COC(=O)N[C@H](C(=O)N1CCC[C@H]1c1nc2cc([C@H]3CC[C@H](c4ccc5[nH]c([C@@H]6CCCN6C(=O)[C@@H](NC(=O)OC)C(C)C)nc5c4)N3c3ccc(-c4ncco4)cc3)ccc2[nH]1)C(C)C` [Example 2.1, methyl {(2S)-1-[(2S)-2-(5-{(2R,5R)-5-{2-[(2S)-1-{(2S)-2-[(methoxycarbonyl)amino]-3-methylbutanoyl}pyrrolidin-2-yl]-1H-benzimidazol-5-yl}-1-[4-(1,3-oxazol-2-yl)phenyl]pyrrolidin-2-yl}-1H-benzimidazol-2-yl)pyrrolidin-1-yl]-3-methyl-1-oxobutan-2-yl}carbamate] the value was under 0.1 nM; for `COC(=O)N[C@H](C(=O)N1CCC[C@H]1c1nc2cc([C@H]3CC[C@H](c4ccc5[nH]c([C@@H]6CCCN6C(=O)[C@@H](NC(=O)OC)C(C)C)nc5c4)N3c3ccc(Cl)c(F)c3)ccc2[nH]1)C(C)C` [Example 2.2, methyl {(2S)-1-[(2S)-2-{5-[(2R,5R)-1-(4-chloro-3-fluorophenyl)-5-{2-[(2S)-1-{(2S)-2-[(methoxycarbonyl)amino]-3-methylbutanoyl}pyrrolidin-2-yl]-1H-benzimidazol-5-yl}pyrrolidin-2-yl]-1H-benzimidazol-2-yl}pyrrolidin-1-yl]-3-methyl-1-oxobutan-2-yl}carbamate], under 0.1 nM.

The values above are taken from US20120220562A1, “Anti-Viral Compounds” (ABBOTT LABAORATORIES, priority 2011, published 2012).
